ChEMBL document CHEMBL1649305, “Novel protease inhibitors (PIs) containing macrocyclic components and 3(R),3a(S),6a(R)-bis-tetrahydrofuranylurethane that are potent against multi-PI-resistant HIV-1 variants in vitro” (Antimicrob Agents Chemother, 2010)
Active and inactive are the calls of the source. The calls are words filed in the database; no cut-off is given here.

Key:
[1] = tested on: Human immunodeficiency virus 1; experiment: Antiviral activity against wild type HIV1 ERS104 containing protease L63P mutant infected in human PHA-PBMC cells by p24 Gag protein production inhibition assay; conditions: Human immunodeficiency virus 1, ERS104, PBMC
[2] = Cytotoxicity against human MT2 cells after 7 days by MTT assay; type: cell-based
[3] = tested on: Human immunodeficiency virus 1; experiment: Antiviral activity against multidrug-resistant HIV1 isolate TM containing L10I, K14R, R41K, M46L, I54V, L63P, A71V, V82A, L90M, and I93L mutant infected in human PHA-PBMC cells by p24 Gag protein production inhibition assay; conditions: Human immunodeficiency virus 1, isolate TM
[4] = tested on: Human immunodeficiency virus 1; experiment: Antiviral activity against wild type HIV1 NL4-3 infected in human MT4 cells by p24 Gag protein production inhibition assay; conditions: Human immunodeficiency virus 1, NL4-3, MT4
[5] = tested on: Human immunodeficiency virus 1; experiment: Antiviral activity against HIV1 expressing protease L23I/E34Q/K43I/M46I/I50L/G51A/L63P/A71V/V82A/T91A mutant infected in human MT4 cells selected at 5 uM of atazanavir by p24 Gag protein production inhibition assay; conditions: Human immunodeficiency virus 1, MT4
[6] = tested on: Human immunodeficiency virus 1; experiment: Antiviral activity against multidrug-resistant HIV1 isolate JSL containing L10I, L24I, I33F, E35D, M36I, N37S, M46L, I54V, R57K, I62V, L63P, A71V, G73S, and V82A mutant infected in human PHA-PBMC cells by p24 Gag protein production inhibition assay; conditions: Human immunodeficiency virus 1, isolate JSL
[7] = tested on: Human immunodeficiency virus 1; experiment: Antiviral activity against HIV1 expressing protease L10F/M46I/I50V/A71V/I84V/L90M mutant infected in human MT4 cells selected at 5 uM of amprenavir by p24 Gag protein production inhibition assay; conditions: Human immunodeficiency virus 1, MT4
[8] = tested on: Human immunodeficiency virus 2; experiment: Antiviral activity against HIV2 EHO infected in human MT2 cells by MTT assay; type: functional, organism-based; conditions: Human immunodeficiency virus 2, EHO
[9] = tested on: Human immunodeficiency virus 1; experiment: Antiviral activity against HIV1 expressing protease L10I/G48V/I54V/A71V/I84V/L90M mutant infected in human MT4 cells selected at 5 uM of saquinavir by p24 Gag protein production inhibition assay; conditions: Human immunodeficiency virus 1, MT4
[10] = tested on: Human immunodeficiency virus 1; experiment: Antiviral activity against HIV1 expressing protease L10F/M46M,I/Q61Q mutant infected in human MT4 cells selected at 1 uM of GRL-396 by MTT assay; type: functional, organism-based; conditions: Human immunodeficiency virus 1, MT4
[11] = tested on: Human immunodeficiency virus 2; experiment: Antiviral activity against HIV2 ROD infected in human MT2 cells by MTT assay; type: functional, organism-based; conditions: Human immunodeficiency virus 2, ISOLATE ROD
MT2 [12] = experiment: Ratio of EC50 for HIV2 EHO to EC50 for HIV1 LAI infected in human MT2 cells; type: functional
[13] = tested on: Human immunodeficiency virus 1; experiment: Antiviral activity against multidrug-resistant HIV1 isolate G containing L10I, V11I, T12E, I15V, L19I,R41K, M46L, L63P, A71T, V82A, and L90M mutant infected in human PHA-PBMC cells by p24 Gag protein production inhibition assay; conditions: Human immunodeficiency virus 1, isolate G
MT2 [14] = experiment: Ratio of EC50 for HIV2 ROD to EC50 for HIV1 LAI infected in human MT2 cells; type: functional
[15] = tested on: Human immunodeficiency virus 1; experiment: Antiviral activity against HIV1 NL4-3 infected in human MT4 cells at 1 uM after 20 passages by MTT assay; type: functional, organism-based
[16] = tested on: Human immunodeficiency virus 1; experiment: Antiviral activity against multidrug-resistant HIV1 isolate C containing protease L10I, I15V, K20R, L24I, M36I, M46L, I54V, I62V, L63P, K70Q, V82A, and L89M mutant infected in human PHA-PBMC cells by p24 Gag protein production inhibition assay; conditions: Human immunodeficiency virus 1, isolate C
[17] = tested on: Human immunodeficiency virus 1; experiment: Antiviral activity against HIV1 LAI infected in human MT2 cells by MTT assay; type: functional, organism-based; conditions: Human immunodeficiency virus 1, LAI
[18] = tested on: Human immunodeficiency virus 1; experiment: Antiviral activity against HIV1 expressing protease L10F/D30N/K45I/A71V/T74S mutant infected in human MT4 cells selected at 5 uM of nelfinavir by MTT assay; type: functional, organism-based; conditions: Human immunodeficiency virus 1, MT4
[19] = tested on: Human immunodeficiency virus 1; experiment: Antiviral activity against multidrug-resistant HIV1 isolate B containing protease L10I, K14R, L33I, M36I,M46I, F53I, K55R, I62V, L63P, A71V, G73S, V82A, L90M, and I93L mutant infected in human PHA-PBMC cells by p24 Gag protein production inhibition assay; conditions: Human immunodeficiency virus 1, isolate B
[20] = tested on: Human immunodeficiency virus 1; experiment: Antiviral activity against HIV1 expressing protease L10F/M46I/T91S mutant infected in human MT4 cells selected at 1 uM of GRL-246 by MTT assay; type: functional, organism-based; conditions: Human immunodeficiency virus 1, MT4
[21] = tested on: Human immunodeficiency virus 1; experiment: Antiviral activity against multidrug-resistant HIV1 isolate MM containing L10I, K43T, M46L, I54V, L63P, A71V, V82A, L90M, and Q92K mutant infected in human PHA-PBMC cells by p24 Gag protein production inhibition assay; conditions: Human immunodeficiency virus 1, isolate MM
[22] = tested on: Human immunodeficiency virus 1; experiment: Antiviral activity against HIV1 NL4-3 infected in human MT4 cells at 1 uM after 33 passages by MTT assay; type: functional, organism-based
[23] = tested on: Human immunodeficiency virus 1; experiment: Antiviral activity against HIV1 NL4-3 infected in human MT4 cells at 1 uM after 37 passages by MTT assay; type: functional, organism-based
[24] = tested on: Human immunodeficiency virus 1; experiment: Antiviral activity against HIV1 expressing protease L10F/M46L/I50V/A71Vmutant infected in human MT4 cells selected at 1 uM of GRL-286 by MTT assay; type: functional, organism-based; conditions: Human immunodeficiency virus 1, MT4
[25] = tested on: Human immunodeficiency virus 1; experiment: Antiviral activity against HIV1 expressing protease L10I/L24I/M46I/V82I/I84V mutant infected in human MT4 cells selected after 50 passages of GRL-216 by MTT assay; type: functional, organism-based; conditions: Human immunodeficiency virus 1, MT4
[26] = tested on: Human immunodeficiency virus 1; experiment: Antiviral activity against HIV1 expressing protease L10F/M46I/I54V/V82A mutant infected in human MT4 cells selected at 5 uM of Lopinavir by p24 Gag protein production inhibition assay; conditions: Human immunodeficiency virus 1, MT4
[27] = tested on: Human immunodeficiency virus 1; experiment: Antiviral activity against HIV1 NL4-3 infected in human MT4 cells after 50 passages by MTT assay; type: functional, organism-based
[28] = tested on: Human immunodeficiency virus 1; experiment: Antiviral activity against HIV1 NL4-3 infected in human MT4 cells at 0.26 uM after 50 passages by MTT assay; type: functional, organism-based
[29] = target: Protease (Human immunodeficiency virus 1) (UniProt Q9YQ12); experiment: Inhibition of protease dimerization in HIV1 infected in COS7 cells at 0.1 uM by FRET based assay; type: cell-based; conditions: COS-7
[30] = tested on: Human immunodeficiency virus type 1 protease (Human immunodeficiency virus 1), Q72874 [L24I,V82I,I84V]; experiment: Inhibition of protease L24I/V82I/I84V[…] dimerization in HIV1 infected in COS7 cells at 0.1 uM by FRET based assay; type: cell-based; conditions: COS-7
[31] = tested on: Human immunodeficiency virus 1; experiment: Ratio of EC50 for multidrug-resistant HIV1 isolate G containing L10I, V11I, T12E, I15V, L19I,R41K, M46L, L63P, A71T, V82A, and L90M mutant to EC50 for wild type HIV1 ERS104 containing protease […] infected in human PHA-PBMC cells; type: functional
[32] = tested on: Human immunodeficiency virus 1; experiment: Ratio of EC50 for multidrug-resistant HIV1 isolate C containing protease L10I, I15V, K20R, L24I, M36I, M46L, I54V, I62V, L63P, K70Q, V82A, and L89M mutant to EC50 for wild type HIV1 ERS104 containing protease L63P mutant infected in human PHA-PBMC cells
[33] = Selectivity ratio of CC50 for human MT2 cells to EC50 for HIV1 LAI infected human MT2 cells; type: ADME, cell-based; conditions: MT2 cells (CC50) and HIV1 LAI infected MT2 cells (EC50)
[34] = tested on: Human immunodeficiency virus 1; experiment: Ratio of EC50 for multidrug-resistant HIV1 isolate JSL to EC50 for wild type HIV1 ERS104 containing protease […] infected in human PHA-PBMC cells

Row | Compound | EC50 [1] [nM] | CC50 at 168 h [2] [nM] | EC50 [3] [nM] | EC50 [4] [nM] | EC50 [5] [nM] | EC50 [6] [nM] | EC50 [7] [nM] | EC50 [8] [nM] | EC50 [9] [nM] | EC50 [10] [nM] | EC50 [11] [nM] | EC50 [13] [nM] | EC50 [16] [nM] | EC50 [17] [nM] | EC50 [18] [nM] | EC50 [19] [nM] | EC50 [20] [nM] | EC50 [21] [nM] | EC50 [24] [nM] | EC50 [25] [nM] | further results
1 | CC(C)CN(C[C@@H](O)[C@H](Cc1ccccc1)NC(=O)O[C@H]1CCOC1)S(=O)(=O)c1ccc(N)cc1 | 30 | > 100000 | 320 | 34 | 280 | 620 | > 1000 | 120 | 180 | 350 | 420 | 430 | 370 | 24 | 28 | > 1000 | 340 | 210 | > 1000 | 260 | Ratio EC50 (MT2 [12]): 3.53; Ratio EC50 (MT2 [14]): 12.3; Activity [15]: inactive; Activity [22]: inactive; Activity [23]: inactive; EC50 [26]: 260 nM; Activity [27]: inactive
2 | COc1ccc2c(c1)OCC/C=C\CCCCN(C[C@@H](O)[C@H](Cc1ccccc1)NC(=O)O[C@H]1CO[C@H]3OCC[C@H]31)S2(=O)=O | 5 | 48800 | 27 | 5 | 23 | 73 | > 1000 | 10 | 20 | 73 | 17 | 57 | 44 | 2 | 40 | 37 | 300 | 33 | > 1000 | 94 | Activity [28]: Active; inhibition [29]: Active; inhibition [30]: Active; EC50 [26]: 35 nM
3 | COc1ccc2c(c1)OCCC/C=C\CCCCN(C[C@@H](O)[C@H](Cc1ccccc1)NC(=O)O[C@H]1CO[C@H]3OCC[C@H]31)S2(=O)=O | 7 | 33100 | 72 | 9 | 30 | 210 | > 1000 | 18 | 46 | 250 | 25 | 28 | 29 | 4 | 41 | 89 | 330 | 55 | > 1000 | 190 | Ratio EC50 [31]: 4; inhibition [29]: Active; Activity [15]: inactive; Ratio EC50 [32]: 4; selectivity ratio [33]: 8280; Activity [22]: inactive; Activity [23]: inactive; Ratio EC50 [34]: 15; EC50 [26]: 350 nM; Activity [27]: inactive
